Where “and” joins values, the source holds several entries; their conditions need not be identical. Identical values can stand only once. Entries after “also recorded” stand apart in the source; their conditions may differ.
Experiments:
[1] = Physical signs after single i.v. dose (Example 3); assay type: in vivo, Sprague-Dawley rats; settings: rat, nicotine 0.4 mg/kg, anatabine 0.10, 0.75, 1.0 mg/kg
Method: Four aliquots of each dose level formulation were collected and stored at −80° C. The test compound, corresponding dose level, number of animals, and sample collection times for Phase I of the study are shown in Table 3. The test compound, corresponding dose level, number of animals, and sample collection times for Phase II of the study are shown in Table 4. The physical signs of each animal were monitored following administration of the test compound.

[2] = Single i.v. dose toxicity: hematology; assay type: in vivo, Sprague-Dawley rats
From the text: (§1) On day 15, urine was collected on all surviving animals for urinalysis. The animals were euthanized and bled via cardiac puncture. Blood was collected for hematology, clinical chemistry, and coagulation analysis. Tissues were collected, weighed, and stored in 10% neutral-buffered formalin for possible future analysis.

[3] = Single i.v. dose toxicity: body weights and food consumption; assay type: in vivo, Sprague-Dawley rats; settings: for Mean food consumption/day: 14 days, 0.1 mg/kg
Method: (§2) Body weight and food consumption was measured daily for 14 days. On day 15, urine was collected on all surviving animals. The animals were euthanized and bled via cardiac puncture, and blood was collected for analysis. Tissues were collected, weighed, evaluated for gross abnormalities, and stored in 10% neutral-buffered formalin.
All animals were observed daily.

nAChR α7 = target: T1, nAChR α7 (Homo sapiens, UniProt P36544); experiment: nAChR α7 channel agonist assay (FLIPR); assay type: cell-based; settings: in presence of PNU-120596; maximal stimulation not achieved
T1 construct: host or cells: CHO cells coexpressing RIC-3
Method: (§3) Briefly, cells were incubated with […] dye for 30 min at 37° C.
Therefore, the assay of agonist activity for either Ach or for the test articles was conducted in the presence of the positive allosteric modulator.

nAChR α4/β2 = target: T2, nAChR α4/β2 (Homo sapiens, UniProt P17787+P43681); assay type: cell-based; settings: 100 μM Ach + 0.3 μM epibatidine; not concentration-dependent, IC50s could not be determined
T2 construct: host or cells: HEK293 cells, transient
Method: as §3

nAChR α3/β4 = nAChR α3/β4 (Homo sapiens, UniProt P30926+P32297); assay type: cell-based; settings: with 10 μM Ach
Method: as §3

[4] = Single i.v. dose toxicity: coagulation (aPTT, PT); assay type: in vivo, Sprague-Dawley rats; settings: for ACTIVE PARTIAL THROMBOPLASTIN TIME: Anatabine 0.1 mg/kg single i.v. dose
From the text: as §1

[5] = Single i.v. dose toxicity: necropsy observations and organ weights; assay type: in vivo, Sprague-Dawley rats
Method: as §2, §1

[6] = 0.1 mg/kg, gender F, group mean
[7] = 0.1 mg/kg, gender M, group mean
[8] = 0.75 mg/kg, gender F, group mean
[9] = 0.75 mg/kg, gender M, group mean
[10] = anatabine 0.1 mg/kg, female rats, individual animals
[11] = anatabine 0.1 mg/kg, male rats, individual animals
[12] = anatabine 0.75 mg/kg, female rats, individual animals
[13] = anatabine 0.75 mg/kg, male rats, individual animals
[14] = Anatabine 0.1 mg/kg, F, individual rats
[15] = Anatabine 0.1 mg/kg, M, individual rats
[16] = Anatabine 0.75 mg/kg, F, individual rats
[17] = Anatabine 0.75 mg/kg, M, individual rats
[18] = single i.v. 0.1 mg/kg, male rats
[19] = Group B: Anatabine 0.1 mg/kg (Females), individual animals
[20] = Group B: Anatabine 0.1 mg/kg (Males), individual animals
[21] = Group C: Anatabine 0.75 mg/kg (Females), individual animals
[22] = Group C: Anatabine 0.75 mg/kg (Males), individual animals
[23] = female animals, Anatabine 0.1 mg/kg, n = 5
[24] = female animals, Anatabine 0.75 mg/kg, n = 5
[25] = male rats, single i.v. 0.1 mg/kg, day 15
[26] = male rats, single i.v. 0.75 mg/kg anatabine, day 15

T1 sequence (P36544 23-502): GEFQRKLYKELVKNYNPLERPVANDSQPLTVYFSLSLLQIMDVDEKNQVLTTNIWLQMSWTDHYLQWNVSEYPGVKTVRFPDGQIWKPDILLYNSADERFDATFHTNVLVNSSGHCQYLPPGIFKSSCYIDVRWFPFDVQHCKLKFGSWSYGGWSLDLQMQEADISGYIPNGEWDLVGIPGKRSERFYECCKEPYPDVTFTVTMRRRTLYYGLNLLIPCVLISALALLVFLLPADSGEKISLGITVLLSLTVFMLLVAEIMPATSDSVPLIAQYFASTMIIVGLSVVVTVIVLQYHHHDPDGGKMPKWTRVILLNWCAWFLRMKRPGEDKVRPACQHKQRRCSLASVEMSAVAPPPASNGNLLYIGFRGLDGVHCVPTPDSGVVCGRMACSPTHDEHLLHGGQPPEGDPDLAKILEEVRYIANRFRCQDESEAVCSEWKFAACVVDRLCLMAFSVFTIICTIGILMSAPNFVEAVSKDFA
T2 sequence (P43681 29-627): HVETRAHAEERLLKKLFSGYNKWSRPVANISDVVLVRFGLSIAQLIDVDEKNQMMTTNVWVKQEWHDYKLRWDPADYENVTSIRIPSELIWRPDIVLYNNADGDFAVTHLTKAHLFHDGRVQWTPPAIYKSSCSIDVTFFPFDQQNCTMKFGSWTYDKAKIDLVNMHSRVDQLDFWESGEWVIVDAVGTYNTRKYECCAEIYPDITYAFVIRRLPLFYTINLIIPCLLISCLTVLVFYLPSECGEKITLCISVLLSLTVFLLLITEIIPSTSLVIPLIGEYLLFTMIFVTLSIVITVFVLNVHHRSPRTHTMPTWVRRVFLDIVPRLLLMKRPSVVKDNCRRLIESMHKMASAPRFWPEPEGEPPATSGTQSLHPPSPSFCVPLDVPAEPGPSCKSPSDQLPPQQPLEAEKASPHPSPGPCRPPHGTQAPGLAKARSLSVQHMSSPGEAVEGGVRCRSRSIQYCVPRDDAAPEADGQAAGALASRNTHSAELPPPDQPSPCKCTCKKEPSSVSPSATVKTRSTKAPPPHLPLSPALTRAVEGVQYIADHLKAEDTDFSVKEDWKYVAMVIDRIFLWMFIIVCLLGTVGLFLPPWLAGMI
T2 sequence (P17787 26-502): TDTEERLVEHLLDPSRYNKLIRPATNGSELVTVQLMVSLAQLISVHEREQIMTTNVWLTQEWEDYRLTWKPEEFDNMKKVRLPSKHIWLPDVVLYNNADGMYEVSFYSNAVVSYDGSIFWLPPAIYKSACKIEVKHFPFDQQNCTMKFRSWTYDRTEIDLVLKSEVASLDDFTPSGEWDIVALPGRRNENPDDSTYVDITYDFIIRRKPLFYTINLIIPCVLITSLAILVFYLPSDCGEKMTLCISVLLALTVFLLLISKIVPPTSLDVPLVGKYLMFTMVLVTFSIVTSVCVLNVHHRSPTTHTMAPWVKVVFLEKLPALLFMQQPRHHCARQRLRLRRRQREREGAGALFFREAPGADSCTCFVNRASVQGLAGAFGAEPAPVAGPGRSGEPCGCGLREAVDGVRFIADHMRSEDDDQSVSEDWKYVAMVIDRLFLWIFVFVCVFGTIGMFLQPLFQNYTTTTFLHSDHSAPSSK
Sequence of nAChR α3/β4 (P32297 32-505): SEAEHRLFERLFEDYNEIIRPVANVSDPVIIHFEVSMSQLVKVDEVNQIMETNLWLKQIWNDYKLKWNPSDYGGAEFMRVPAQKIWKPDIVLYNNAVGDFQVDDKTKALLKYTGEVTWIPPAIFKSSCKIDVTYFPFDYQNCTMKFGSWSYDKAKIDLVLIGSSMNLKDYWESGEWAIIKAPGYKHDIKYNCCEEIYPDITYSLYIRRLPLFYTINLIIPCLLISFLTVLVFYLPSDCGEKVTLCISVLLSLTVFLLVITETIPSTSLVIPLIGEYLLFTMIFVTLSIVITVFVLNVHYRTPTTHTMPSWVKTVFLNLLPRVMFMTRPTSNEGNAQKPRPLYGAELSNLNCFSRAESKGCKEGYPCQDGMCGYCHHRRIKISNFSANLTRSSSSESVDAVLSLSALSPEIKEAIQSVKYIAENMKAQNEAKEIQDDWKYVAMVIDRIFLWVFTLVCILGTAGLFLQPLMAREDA
Sequence of nAChR α3/β4 (P30926 22-498): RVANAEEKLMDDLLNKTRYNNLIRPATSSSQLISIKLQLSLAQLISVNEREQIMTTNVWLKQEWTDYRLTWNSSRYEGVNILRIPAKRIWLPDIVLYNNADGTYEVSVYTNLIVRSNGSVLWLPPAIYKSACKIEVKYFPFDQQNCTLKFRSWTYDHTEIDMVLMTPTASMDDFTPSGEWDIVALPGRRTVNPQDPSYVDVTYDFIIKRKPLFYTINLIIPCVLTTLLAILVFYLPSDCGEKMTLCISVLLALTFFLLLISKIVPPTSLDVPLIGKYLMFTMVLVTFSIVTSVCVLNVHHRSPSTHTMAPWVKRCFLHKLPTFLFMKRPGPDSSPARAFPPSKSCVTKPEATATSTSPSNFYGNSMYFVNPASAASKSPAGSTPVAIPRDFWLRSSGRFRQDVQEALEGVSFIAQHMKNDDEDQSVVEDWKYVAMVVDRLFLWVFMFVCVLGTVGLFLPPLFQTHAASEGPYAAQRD

## C1=CCC(c2cccnc2)NC1 (racemic) [Anatabine, 1,2,3,6-tetrahydro-[2,3′]bipyridinyl]
[1]
  physical signs post dose: no obvious adverse signs were observed
[2]; [6]
  BASOPHIL: 0.0%
  EOSINOPHIL: 0.0%
  MCV: 60.0 fL
  MONOCYTE: 1.8%
  NEUTROPHIL SEG: 8.0%
  PLATELET COUNT: 997300 µL⁻¹
  RBC: 7.8e+06 µL⁻¹
  RETICULOCYTE COUNT: 4.5%
  WBC: 9300 µL⁻¹
[2]; [7]
  BASOPHIL: 0.0%
  EOSINOPHIL: 0.2%
  MONOCYTE: 2.0%
  NEUTROPHIL SEG: 8.6%
  PLATELET COUNT: 1.2486e+06 µL⁻¹
  RBC: 7.4e+06 µL⁻¹
  RETICULOCYTE COUNT: 5.5%
  WBC: 15600 µL⁻¹
[2]; [8]
  BASOPHIL: 0.0%
  EOSINOPHIL: 0.0%
  MONOCYTE: 0.8%
  NEUTROPHIL SEG: 8.6%
  PLATELET COUNT: 1.2696e+06 µL⁻¹
  RBC: 7.5e+06 µL⁻¹
  RETICULOCYTE COUNT: 3.3%
  WBC: 10300 µL⁻¹
[2]; [9]
  BASOPHIL: 0.0%
  EOSINOPHIL: 0.0%
  MCHC: 34.0%
  MONOCYTE: 1.4%
  NEUTROPHIL SEG: 9.8%
  PLATELET COUNT: 1.3258e+06 µL⁻¹
  RBC: 7.5e+06 µL⁻¹
  RETICULOCYTE COUNT: 4.4%
  WBC: 12100 µL⁻¹
[2]; [10]
  ANISOCYTOSIS: SLIGHT
  BASOPHIL: 0%
  EOSINOPHIL: 0%
  HCT: 44%
  HGB: 17 gm/dL
  LYMPHOCYTE: 89% and 90% and 91% and 93% and 88%
  MCHC: 34%
  MONOCYTE: 3% and 2% (2×) and 1% (2×)
  NEUTROPHILSEG: 8% (2×) and 7% and 6% and 11%
  PLATELETEST: ADEQUATE; also recorded: DECREASED
  POLYCHROMASIA: SLIGHT
  RETICULOCYTE COUNT: 4.8% and 5.4% and 6.1% and 3.7% and 2.4%
[2]; [11]
  ANISOCYTOSIS: SLIGHT
  BASOPHIL: 0%
  EOSINOPHIL: 0% (4×) and 1%
  HCT: 45%
  LYMPHOCYTE: 87% (2×) and 94% and 90% and 88%
  MCHC: 34% (2×) and 32%
  MONOCYTE: 1% (2×) and 3% (2×) and 2%
  NEUTROPHILSEG: 12% and 3% and 7% and 10% and 11%
  PLATELETEST: ADEQUATE; also recorded: INCREASED
  POLYCHROMASIA: SLIGHT
  RETICULOCYTE COUNT: 6.1% and 5.4% and 4.7% and 5.6% and 5.9%
[2]; [12]
  ANISOCYTOSIS: SLIGHT
  BASOPHIL: 0%
  EOSINOPHIL: 0%
  HGB: 15 gm/dL
  LYMPHOCYTE: 93% (2×) and 87% and 91% and 89%
  MONOCYTE: 1% (2×) and 0% (2×) and 2%
  NEUTROPHILSEG: 6% and 12% and 9% (2×) and 7%
  PLATELETEST: ADEQUATE; also recorded: INCREASED
  POLYCHROMASIA: SLIGHT
  RETICULOCYTE COUNT: 3.4% and 1.8% and 3.2% and 3.8% and 4.1%
[2]; [13]
  ANISOCYTOSIS: SLIGHT
  BASOPHIL: 0%
  EOSINOPHIL: 0%
  LYMPHOCYTE: 86% and 89% (2×) and 92% and 88%
  MCH: 21 UUG and 22 UUG
  MONOCYTE: 1% (3×) and 2% (2×)
  NEUTROPHILSEG: 13% and 10% (3×) and 6%
  PLATELETEST: ADEQUATE; also recorded: DECREASED
  POLYCHROMASIA: SLIGHT
  RETICULOCYTE COUNT: 3.6% and 4.2% and 4.1% and 4.7% and 5.3%
[2]; female rats, 0.1 mg/kg anatabine i.v.
  mean corpuscular hemoglobin concentration (MCHC) vs control: small but statistically significant decrease
[2]; female rats, […] anatabine, 0.75 mg/kg nicotine i.v.
  mean corpuscular volume (MCV) and mean corpuscular hemoglobin (MCH) vs control: small, but statistically significant decreases
[3]; [14]
  day 7 B.W.: 222.0 g
  day 12 B.W.: 240.0 g
[3]; [15]
  day 3 B.W.: 270.0 g
  day 4 B.W.: 270.0 g
  day 8 B.W.: 310.0 g
  day 9 B.W.: 310.0 g
  day 12 B.W.: 320.0 g
  day 13 B.W.: 360 g
[3]; [16]
  day 2 B.W.: 210.0 g
  day 4 B.W.: 230.0 g and 220.0 g
  day 8 B.W.: 220.0 g
[3]; [17]
  day 2 B.W.: 240.0 g
  day 8 B.W.: 300.0 g
  day 13 B.W.: 330 g
[3]; single i.v. 0.1 mg/kg, female rats
  Mean weight increase by day 14: 39.0 g
[3]; [18]
  Mean weight increase by day 14: 132.5 g
  Mean food consumption/day: 31.0 g
[3]; single i.v. 0.1 mg/kg, male rats, listed as anatabine
  Mean food consumption/day: statistically higher
[3]; single i.v. 0.75 mg/kg anatabine, female rats
  Mean weight increase by day 14: 43.1 g
[3]; single i.v. 0.75 mg/kg anatabine, male rats
  Mean weight increase by day 14: 111.6 g
nAChR α7
  agonist activity: showed agonist activity
nAChR α4/β2
  inhibition: inhibited receptor activity
nAChR α3/β4
  potentiation: Neither nicotine nor anatabine potentiated
[4]; female rats, individual animals B6-B10
  ACTIVE PARTIAL THROMBOPLASTIN TIME: 26 s
[4]; male rats, individual animals B1-B5
  ACTIVE PARTIAL THROMBOPLASTIN TIME: 32 s
[4]; rat, each anatabine treatment group
  aPTT and PT vs vehicle control: no significant differences in aPTT or PT
[5]; [19]
  Tissue Collection Weights: Heart: 0.95 g
  Tissue Collection Weights: Ovaries/uterus: 0.96 g and 0.84 g and 0.70 g
  Tissue Collection Weights: Small intestine: 0.87 g and 0.71 g and 0.55 g and 0.49 g and 0.63 g
  Tissue Collection Weights: Spleen: 0.79 g and 0.62 g and 0.51 g and 0.67 g and 0.65 g
  Tissue Collection Weights: Thymus: 0.68 g and 0.59 g and 0.49 g and 0.71 g and 0.73 g
[5]; [20]
  Tissue Collection Weights: Heart: 1.60 g
  Tissue Collection Weights: Kidneys: 3.70 g
  Tissue Collection Weights: Prostate: 0.72 g and 0.49 g and 0.73 g and 0.53 g and 0.48 g
  Tissue Collection Weights: Small intestine: 0.61 g and 0.96 g and 0.88 g and 0.50 g and 0.35 g
  Tissue Collection Weights: Spleen: 0.91 g and 0.66 g and 0.82 g and 0.93 g and 0.76 g
  Tissue Collection Weights: Thymus: 0.74 g (2×) and 0.76 g and 0.71 g and 0.81 g
[5]; [21]
  Tissue Collection Weights: Brain: 1.93 g
  Tissue Collection Weights: Heart: 0.99 g
  Tissue Collection Weights: Kidneys: 2.20 g
  Tissue Collection Weights: Lungs: 1.30 g
  Tissue Collection Weights: Ovaries/uterus: 0.81 g and 1.50 g and 0.72 g
  Tissue Collection Weights: Small intestine: 0.72 g and 0.37 g and 0.85 g and 0.47 g
  Tissue Collection Weights: Spleen: 0.70 g and 0.65 g (2×) and 0.51 g and 0.49 g
  Tissue Collection Weights: Thymus: 0.56 g and 0.53 g and 0.63 g and 0.52 g and 0.54 g
[5]; [22]
  Tissue Collection Weights: Brain: 2.00 g
  Tissue Collection Weights: Prostate: 0.49 g (2×) and 0.65 g and 0.46 g and 0.45 g
  Tissue Collection Weights: Small intestine: 0.54 g and 0.56 g and 0.41 g and 0.47 g
  Tissue Collection Weights: Spleen: 0.71 g and 0.63 g and 0.79 g and 0.93 g and 0.64 g
  Tissue Collection Weights: Testes: 2.70 g
  Tissue Collection Weights: Thymus: 0.52 g and 0.67 g and 0.69 g and 0.47 g
[5]; [23]
  Organ Weight Brain, Mean: 1.86 g
  Organ Weight Heart, Mean: 1.13 g
  Organ Weight Liver, Mean: 10.84 g
  Organ Weight Lungs, Mean: 1.41 g
  Organ Weight Ovaries/uteris, Mean: 1.14 g
  Organ Weight, Small intestine (mean): 0.65 g
  Organ Weight, Spleen (mean): 0.65 g
  Organ Weight, Thymus (mean): 0.64 g
[5]; [24]
  Organ Weight Brain, Mean: 1.90 g
  Organ Weight Heart, Mean: 1.11 g
  Organ Weight Kidneys, Mean: 2.30 g
  Organ Weight Liver, Mean: 10.42 g
  Organ Weight Lungs, Mean: 1.45 g
  Organ Weight Ovaries/uteris, Mean: 1.58 g
  Organ Weight, Small intestine (mean): 0.75 g
  Organ Weight, Spleen (mean): 0.60 g
  Organ Weight, Thymus (mean): 0.56 g
[5]; [25]
  Organ Weight, Prostate (mean): 0.59 g
  Organ Weight, Small intestine (mean): 0.66 g
  Organ Weight, Spleen (mean): 0.82 g
  Organ Weight, Thymus (mean): 0.75 g
[5]; [26]
  Organ Weight, Prostate (mean): 0.51 g
  Organ Weight, Small intestine (mean): 0.68 g
  Organ Weight, Spleen (mean): 0.74 g
  Organ Weight, Thymus (mean): 0.67 g

Reference: patent publication US20160030407A1, “Method of Treating Inflammatory Lung Disease” (priority 2010, published 2016)
